The conditions of data set [1]: leucovorin vs levoleucovorin; cited from earlier work.
For data set [2] the following is noted: cited from earlier work.
The test system of data set [3] is metastatic colorectal cancer tumors (Stadium IV CRC patients). The experiment in a line: Clinical Study ISO-CC-005 (Phase I/IIa) safety extension cohorts and Follow-up study: tumour response by CT/MRI per RECIST 1.1. Format: in vivo, human. An excerpt: As used herein, the term ORR shall refer to the Objective Response Rate, ie. the proportion of patients with reduction in tumor burden of a predefined amount. […] (Note: the appearance of one or more new lesions is also considered progression). […] Shortly after, applicant started two additional treatment groups in 2018 to generate more safety and efficacy data, i.e. the safety extension Cohort #18 (Treatment Arm #4) and Cohort #19 (Treatment Arm #6). The aim was to evaluate as many patients as possible from the additional treatment groups after a treatment period of 16 weeks or more. On 30 Sep. 2020, applicant announced response assessment data from the two safety extension cohorts (31 patients) treated for 16 weeks or longer (press release: 55% Overall Response Rate on the safety extension cohorts of the ISO-CC-005 Phase I/IIa study|BioSpace). […] These patients had been treated with the selected dose regimen of 120 mg/m2 arfolitixorin and 5-fluorouracil (5-FU) with either irinotecan or oxaliplatin ([…]). Out of the 31 patients, 17 were treated with an ARFOX regimen. Clinical Study ISO-CC-005 was an exploratory, Phase I/II multiple-centre study to be carried out in Stadium IV CRC patients. The study was designed to show clinical relevance for patients by characterizing the tolerability of four arfolitixorin dose levels (30, 60, 120, and 240 mg/m2) in six different standard clinical settings in the presence of fixed doses of 5-FU alone or in combination with either oxaliplatin, irinotecan, or oxaliplatin and bevacizumab. [table] The study was divided in the Main Study and the Follow-up Study. In the Main Study, patients received study treatment with arfolitixorin during eight weeks. Patients eligible for the Follow-up study could participate until reaching progress, but no longer than 18 months. […] The goal with the Dose-finding part of the Main Study was to establish the arfolitixorin dose level assessed as having the most favourable profile, i.e. the selected phase 2 dose (SP2D). […] Response was measured in short- and long-term assessments. […]

Data on 4 compounds can be found in patent US20230102483A1, “[6R]-MTHF IN 5-FU BASED CHEMOTHERAPY OF LEFT-SIDED COLORECTAL CANCER” (Isofol Medical AB, priority 2021, published 2023).

Consider `Nc1nc2c(c(=O)[nH]1)N(C=O)C(CNc1ccc(C(=O)N[C@@H](CCC(=O)O)C(=O)O)cc1)CN2` (stereo partly shown) [Leucovorin, 5-formyl tetrahydrofolic acid], for which, in data set [1], the pharmacokinetic comparison result is “pharmacokinetically identical”. Turning to `Nc1nc2c(c(=O)[nH]1)N(C=O)[C@H](CNc1ccc(C(=O)N[C@@H](CCC(=O)O)C(=O)O)cc1)CN2` [d-LV], the excretion result in data set [2] (kidneys) is “slowly excreted by the kidneys”. For the compound `Nc1nc(=O)c2c([nH]1)NC[C@H](CNc1ccc(C(=O)N[C@@H](CCC(=O)O)C(=O)O)cc1)N2C=O` [1-LV], the pharmacokinetic comparison result in data set [1] was “pharmacokinetically identical”. The metabolic conversion result in data set [2] (In vitro) is “rapidly converted to the biologically available methyl-tetrahydrofolate form”. Regarding `Nc1nc2c(c(=O)[nH]1)N1CN(c3ccc(C(=O)N[C@@H](CCC(=O)O)C(=O)O)cc3)C[C@H]1CN2` [[6R]-5,10-MTHF, [6R]-5,10-methylenetetrahydrofolate], in data set [3] (ISO-CC-005, treatment period of at least 8 weeks), the “progression of tumors between 8 and 16 weeks after initiating treatment” value is listed as “No statistically significant progression”. In addition, in data set [3] (left-sided or rectal primary tumor (18 patients), 16 weeks and beyond, 120 mg/m2 arfolitixorin), the “best ORR, patients diagnosed with LCRC or RCA” value is reported as over 60%. In addition, the “best ORR, only LCRC (without the rectal cases)” value in data set [3] (left-sided primary tumor (13 patients), 16 weeks and beyond, 120 mg/m2 arfolitixorin) is given as about 70%.
